# Reference: US4322412A, “Anthracycline glycosides, their preparation, use and compositions thereof” (priority 1979, dated 1982)
# Counter-ions that a name gives are not always drawn. Like-named read-outs stand apart in the source and are kept apart here.
# What was measured:
# HeLa cells = test: Effect on HeLa Cells Cloning Efficiency In Vitro; assay type: cell-based; settings: for IC50: Homo sapiens, HeLa, read-out: ID50 (HeLa cells cloning efficiency); for cytotoxicity relative to parent compounds: in words, vs respective parent compounds (Table 1)
# Experimental: ^(a) HeLa cells were exposed to the test compounds for 24 hours, then
# plated. The number of colonies was evaluated 5 days later.
# P-388 ascitic leukemia = test: Antitumor Activity on Ascitic P 388 Leukemia in Mice; assay type: in vivo; settings: for antitumor activity relative to parent compounds: at the maximal tolerated dose; for in vivo toxicity relative to parent compounds: vs parent compounds; for in vivo toxicity: even at a dose of 200 mg/kg; for antitumor activity relative to daunorubicin: vs daunorubicin in the same experiment
# Experimental: Several of the new compounds of the invention were tested on HeLa cells cloning efficiency in vitro and on P-388 ascitic leukemia in mice, in comparison with daunorubicin and doxorubicin.
# Antitumor Activity on Ascitic P 388 Leukemia in Mice
# ^(a) Mice were treated i.p. on day 1 after tumor cells inoculation.
# ^(b) Median survival time of treated mice/median survival time of
# ^(c) Evaluated on the basis of macroscopic autoptic findings.
# ^(d) Data of two separate experiments.
# [1] = 24 hours exposure, then plated, colonies evaluated 5 days later
structure (smiles),measurement,setting,value
"COc1cccc2c1C(=O)c1c(cc3c(c1OC)[C@@H](O[C@H]1C[C@H](N)[C@H](OC)[C@H](C)O1)C[C@](O)(C(C)=O)C3)C2=O [IV, 4',6-di-O-methyl-11-deoxy-daunorubicin]",IC50,HeLa cells; [1],1 µg/mL
"COc1cccc2c1C(=O)c1c(cc3c(c1O)[C@@H](O[C@H]1C[C@H](N)[C@H](OC)[C@H](C)O1)C[C@](O)(C(=O)CO)C3)C2=O [III, 4'-O-methyl-11-deoxy-doxorubicin]",T/C (median survival time of treated mice/control mice × 100),P-388 ascitic leukemia; 6.6 mg/kg i.p. day 1,195%
same,Toxic Deaths (macroscopic autoptic findings),P-388 ascitic leukemia; 6.6 mg/kg i.p. day 1,0/8
same,T/C (median survival time of treated mice/control mice × 100),P-388 ascitic leukemia; 10 mg/kg i.p. day 1,209%
same,Toxic Deaths (macroscopic autoptic findings),P-388 ascitic leukemia; 10 mg/kg i.p. day 1,0/8
same,T/C (median survival time of treated mice/control mice × 100),P-388 ascitic leukemia; 15 mg/kg i.p. day 1,238%
same,Toxic Deaths (macroscopic autoptic findings),P-388 ascitic leukemia; 15 mg/kg i.p. day 1,0/7
same,T/C (median survival time of treated mice/control mice × 100),P-388 ascitic leukemia; 22.5 mg/kg i.p. day 1,214%
same,Toxic Deaths (macroscopic autoptic findings),P-388 ascitic leukemia; 22.5 mg/kg i.p. day 1,0/10
same,range of active and non-toxic doses,P-388 ascitic leukemia; in words,wide range of active and non-toxic doses
same,antitumor activity relative to parent compounds,P-388 ascitic leukemia; in words,comparable to that of the parent compounds
same,in vivo toxicity relative to parent compounds,P-388 ascitic leukemia; in words,less toxic in vivo
same,IC50,HeLa cells; [1],0.022 µg/mL
same,cytotoxicity relative to parent compounds,HeLa cells,less cytotoxic than their respective parent compounds
"COc1cccc2c1C(=O)c1c(O)c3c(c(OC)c1C2=O)C[C@@](O)(C(C)=O)C[C@@H]3O[C@H]1C[C@H](N)[C@H](O)[C@H](C)O1 [VI, 11-O-methyl-daunorubicin]",T/C (median survival time of treated mice/control mice × 100),P-388 ascitic leukemia; 100 mg/kg i.p. day 1,111%
same,Toxic Deaths (macroscopic autoptic findings),P-388 ascitic leukemia; 100 mg/kg i.p. day 1,0/4
same,T/C (median survival time of treated mice/control mice × 100),P-388 ascitic leukemia; 200 mg/kg i.p. day 1,122%
same,Toxic Deaths (macroscopic autoptic findings),P-388 ascitic leukemia; 200 mg/kg i.p. day 1,0/3
same,in vivo toxicity,P-388 ascitic leukemia; in words,not toxic
same,antitumor activity relative to daunorubicin,P-388 ascitic leukemia; in words,comparable to that of daunorubicin
same,IC50,HeLa cells; [1],0.4 µg/mL
same,cytotoxicity relative to parent compounds,HeLa cells,markedly less cytotoxic than are their parent compounds
"COc1cccc2c1C(=O)c1c(O)c3c(c(OC)c1C2=O)C[C@@](O)(C(C)=O)C[C@@H]3O[C@H]1C[C@H](N)[C@H](OC)[C@H](C)O1 [VIII, 4',11-di-O-methyl-daunorubicin]",T/C (median survival time of treated mice/control mice × 100),P-388 ascitic leukemia; 100 mg/kg i.p. day 1,111%
same,Toxic Deaths (macroscopic autoptic findings),P-388 ascitic leukemia; 100 mg/kg i.p. day 1,0/6
same,T/C (median survival time of treated mice/control mice × 100),P-388 ascitic leukemia; 200 mg/kg i.p. day 1,122%
same,Toxic Deaths (macroscopic autoptic findings),P-388 ascitic leukemia; 200 mg/kg i.p. day 1,0/6
same,in vivo toxicity,P-388 ascitic leukemia; in words,not toxic
same,antitumor activity relative to daunorubicin,P-388 ascitic leukemia; in words,comparable to that of daunorubicin
same,IC50,HeLa cells; [1],0.5 µg/mL
same,cytotoxicity relative to parent compounds,HeLa cells,markedly less cytotoxic than are their parent compounds
"COc1cccc2c1C(=O)c1c(cc3c(c1O)[C@@H](O[C@H]1C[C@H](N)[C@H](OC)[C@H](C)O1)C[C@](O)(C(C)=O)C3)C2=O [II, 4'-O-methyl-11-deoxy-daunorubicin]",T/C (median survival time of treated mice/control mice × 100),P-388 ascitic leukemia; 25 mg/kg i.p. day 1,180%
same,Toxic Deaths (macroscopic autoptic findings),P-388 ascitic leukemia; 25 mg/kg i.p. day 1,0/9
same,T/C (median survival time of treated mice/control mice × 100),P-388 ascitic leukemia; 50 mg/kg i.p. day 1,225%
same,Toxic Deaths (macroscopic autoptic findings),P-388 ascitic leukemia; 50 mg/kg i.p. day 1,1/9
same,antitumor activity relative to parent compounds,P-388 ascitic leukemia; in words,comparable to that of the parent compounds
same,in vivo toxicity relative to parent compounds,P-388 ascitic leukemia; in words,less toxic in vivo
same,IC50,HeLa cells; [1],0.066 µg/mL
same,cytotoxicity relative to parent compounds,HeLa cells,less cytotoxic than their respective parent compounds
"COc1cccc2c1C(=O)c1c(O)c3c(c(O)c1C2=O)C[C@@](O)(C(=O)CO)C[C@@H]3O[C@H]1C[C@H](N)[C@H](O)[C@H](C)O1 [Doxorubicin . HCl (adriamycin), doxorubicin, reference compound]",T/C (median survival time of treated mice/control mice × 100),P-388 ascitic leukemia; 4.4 mg/kg i.p. day 1,219%
same,Toxic Deaths (macroscopic autoptic findings),P-388 ascitic leukemia; 4.4 mg/kg i.p. day 1,0/8
same,T/C (median survival time of treated mice/control mice × 100),P-388 ascitic leukemia; 6.6 mg/kg i.p. day 1,223%
same,Toxic Deaths (macroscopic autoptic findings),P-388 ascitic leukemia; 6.6 mg/kg i.p. day 1,0/8
same,T/C (median survival time of treated mice/control mice × 100),P-388 ascitic leukemia; 10 mg/kg i.p. day 1,180%
same,Toxic Deaths (macroscopic autoptic findings),P-388 ascitic leukemia; 10 mg/kg i.p. day 1,4/8
same,IC50,HeLa cells; 24 h,0.0095 µg/mL
"COc1cccc2c1C(=O)c1c(O)c3c(c(O)c1C2=O)C[C@@](O)(C(C)=O)C[C@@H]3O[C@H]1C[C@H](N)[C@H](O)[C@H](C)O1 [Daunorubicin . HCl, daunorubicin, reference compound]",Toxic Deaths (macroscopic autoptic findings),"P-388 ascitic leukemia; 2.9 mg/kg i.p. day 1, two separate experiments, first value",0/10
same,Toxic Deaths (macroscopic autoptic findings),"P-388 ascitic leukemia; 2.9 mg/kg i.p. day 1, two separate experiments, second value",0/8
same,Toxic Deaths (macroscopic autoptic findings),"P-388 ascitic leukemia; 4.4 mg/kg i.p. day 1, two separate experiments, first value",3/10
same,Toxic Deaths (macroscopic autoptic findings),"P-388 ascitic leukemia; 4.4 mg/kg i.p. day 1, two separate experiments, second value",0/6
same,Toxic Deaths (macroscopic autoptic findings),"P-388 ascitic leukemia; 6.6 mg/kg i.p. day 1, two separate experiments, first value",8/10
same,Toxic Deaths (macroscopic autoptic findings),"P-388 ascitic leukemia; 6.6 mg/kg i.p. day 1, two separate experiments, second value",0/6
same,IC50,HeLa cells; 24 h,0.0072 µg/mL
